# Reference: patent publication US20090118194A1, “Measurement of melanocortin peptides and uses thereof” (Auckland UniServices Limited, priority 2002, published 2009)
# Tests used:
# [1] = system: 3T3 L1 adipocytes; assay: Leptin production in differentiated 3T3 L1 adipocytes (peptide stimulation assay); format: cell-based, murine; settings: for mean leptin level: one assay; for Leptin Response, Mean: 4 hours, 2 assays combined
# Protocol: (§1) • 2.1 The objective of this study was to determine the effects of a-MSH and desacetyl a-MSH on leptin and triglyceride production in murine 3T3 L1 adipocytes. • 2.2 Pre-adipocytes were seeded in 6-well plates and 2 days post confluence (Day 2) were differentiated with […] indomethacin+5 ug/mL insulin (described in previous documents). • 2.3 On Day 13 adipocytes were stimulated with 4 doses each of a-MSH and desacetyl a-MSH (or no peptide added) for 4 hours. • 2.4 Medium was removed from the wells and leptin and triglyceride levels measured. • 2.5 Intracytoplasmic lipid accumulation was measured by staining with Oil red O.
# (§2) • 4.1 Medium=a-MEM+0.5% BSA (100 mL a-MEM+0.5 g BSA) • 4.2 Doses of a-MSH and da-MSH (stocks in −80° C. freezer=1 ug/ul), using MW of a-MSH. • 1 M=1665 g/L=1665 mg/mL • 1 mM=1.665 mg/mL • 1 uM=1.665 ug/mL • 1.665 ug/mL=3.3 ug/2 mL in each well • 1/10 dilution of 1 ug/ul (stock)=0.1 ug/ul. 33 ul=3.3 ug. • Prepare 1/10 dilution of freezer stock (1 ug/ul) to make 0.1 ug/ul, using a-MEM+0.5% BSA as diluent. • Make 3 serial dilutions of 1/10 to add 33 ul to each well in 6-well plate. • Doses are in triplicate wells, so require 3×33=99 ul for each dose.
# • 5.1 Assay is performed on Day 14 after initiation of cell differentiation. On day prior to stimulation assay, replace growth medium+insulin with medium prepared in 4.1 (a-MEM+0.5% BSA) and return plates to incubator. • 5.2 On Day of assay prepare peptide solutions as in 4.2 and IBMX as in 4.3. • 5.3 Replace medium with the same medium supplemented with 1 mM IBMX (as in 4.3) and allow cells to equilibrate in incubator for 10 minutes. • 5.4 Add increasing concentrations of peptides (or none), 33 ul per well, swirl gently to mix, and place plates in incubator for 4 hours. • 5.5 At the end of the incubation remove media from wells and store triplicate aliquots in −20° C. freezer for measurement of leptin and triglycerides. • 5.6 Stain adipocytes in wells with Oil Red O as in “Oil Red O Staining of Adipocyte” document. • 5.7 After eluting the stain, remove cells from wells as in 6.0 for measuring total protein.
# Leptin Assays Quantikine M kit (R & D Systems Inc, UK # MOB00 Abingdon, Oxon) and DSL kit (DSL #10-24100, Australia PTY Ltd, NSW, Australia) were used. […] The Quantikine M kit is preferred as it is more sensitive and precise.
# [2] = system: neonatal rats; assay: Body and organ weights of neonatal rats after subcutaneous injection; format: in vivo, rat; settings: s.c. 0.3 μg/g body weight/day; for body weight change (growth) over 14 days vs PBS: first 14 days of life
# Protocol: (§3) Adult female Wistar rats were housed in plastic cages and kept on a 12-h dark/light cycle. Animals received tap water and rat pellets ad libitum and were mated with males of the same strain. Each litter of new-born Wistar rats was culled to 9 pups per mother.
# (§4) PBS or freshly prepared peptide solutions made up freshly in PBS containing 0.1% BSA were injected subcutaneously once per day in a volume of 40 μl for 14 days. Animals were injected on day 14 and 1 h later they were euthanised using sodium pentobarbital.
# Rats were weighed at birth and then every 2 days prior to injection of peptides. Body weights were recorded on day 14 before injection and again when they were euthanised. The following organs were dissected and weighed: brain, heart, kidney, liver, lung, spleen.
# Liner relationships between organ weights and body weights was tested using regression analysis of the organ weights measured against final body weight on day 14. There were significant linear relationships between organ weights and body weights for the following tissues: brain, spleen, heart, kidney and liver. There was no significant regression between lung weight and body weight. For those organs where their weight was linearly correlated to body weight, treatment effects on organ weight changes were analysed using ANCOVA with body weight as the co-variate.
# Differences in body weight were analysed using a General Linear Model with repeated measures. Significance was assumed at the P<0.05 level.
# [3] = system: hypothalamic proteins; assay: Hypothalamic proteins after subcutaneous injection of new-born rats for 14 days; format: in vivo, rat; settings: hypothalamus, s.c. for 14 days
# Protocol: Tables 3 and 4 represent data from a neonatal study, where the two MSH peptides were injected subcutaneously into new-born rats for 14 days, and the changes in hypothalamic proteins assessed with the same method as the above study.
# as §3, §4
# [4] = system: 3T3 L1 adipocytes; assay: Triglyceride release from 3T3 L1 adipocytes (peptide stimulation assay); format: cell-based, murine; settings: 4 hours, 2 assays combined
# Protocol: as §1, §2
# • 5.1 Assay is performed on Day 14 after initiation of cell differentiation. […]
sequence,measurement,setting,value
"SYSMEHFRWGKPV [desacetyl-α-MSH, non-acetylated form of α-MSH, obtained from Bachem]",effect on leptin production,[1]; 1 nM single peptide,appears to reduce leptin production
same,mean leptin level,[1]; 1 nM single peptide,480.4 pg/mL
same,"Leptin Response, Mean",[1]; 1 nM,95.4 % of control
same,"Leptin Response, Mean",[1]; 10 nM,96.3 % of control
same,mean leptin level,[1]; 100 nM single peptide,528.0 pg/mL
same,"Leptin Response, Mean",[1]; 100 nM,97.7 % of control
same,"Leptin Response, Mean",[1]; 1000 nM,109.4 % of control
same,brain weight vs PBS,[2]; 14 days,significantly decreased brain weight
same,kidney weight vs PBS,[2]; 14 days,no significant effect on kidney weight
same,spleen weight vs PBS,[2]; 14 days,significantly increased spleen weight
same,body weight change (growth) over 14 days vs PBS,[2],grew significantly slower
same,body weight change (growth) over 14 days vs PBS,[2]; listed as Desacetyl-α-MSH,significantly slowed body weight change
same,body weight catch up compared to PBS treated rats,[2]; from day 12,appeared to catch up on body weight from day 12
same,"ATP synthase, H+ transporting (p1379), level compared to control",[3],1.7 fold decrease
same,"RIKEN cDNA0610011D08 (p1381), level compared to control",[3],3.3 fold increase
same,"cofilin (p1854), level compared to control",[3],1.9 fold increase
same,"creatine kinase brain (p1079), level compared to control",[3],1.9 fold increase
same,"creatine kinase brain (p1251), level compared to control",[3],2.1 fold increase
same,"dihydropyrimidinase-like 2 (p537), level compared to control",[3],2.5 fold decrease
same,"heat shock protein (p1445), level compared to control",[3],2.0 fold increase
same,"hypothetical protein XP_112457 (p1936), level compared to control",[3],2.2 fold increase
same,"prohibitin homologue (p1458), level compared to control",[3],1.7 fold increase
same,"protein kinase C inhibitor (p1790), level compared to control",[3],1.8 fold increase
same,"similar to SH3-containing protein SH3GLB2 (p1557), level compared to control",[3],4.0 fold increase
same,"similar to phosphoglycerate kinase (p1363), level compared to control",[3],1.6 fold increase
same,"spectrin fragment (p1362), level compared to control",[3],2.5 fold decrease
same,"stathmin (p1610), level compared to control",[3],2.6 fold increase
same,"stathmin P*Ser38 (p1588), level compared to control",[3],1.7 fold increase
same,"triosephosphate isomerase (p1339), level compared to control",[3],2.1 fold increase
same,"tubulin beta (p1520), level compared to control",[3],1.6 fold increase
same,"TRIGLYCERIDE RESPONSE, MEAN",[4]; 100 nM,111.4 % OF CONTROL
same,"TRIGLYCERIDE RESPONSE, MEAN",[4]; 1000 nM,110.0 % OF CONTROL
